Source: DBAASP
≈ marks a conversion by molar mass, not a printed value.

How the values were obtained:
Assay in all cases: ≥ marks a high value that may be exact or a test limit, other limits are often not marked, values filed in µg/mL are converted to µM
[1] = tested on: Staphylococcus aureus NCTC 8325
[2] = tested on: Candida albicans ATCC 90028
[3] = tested on: Escherichia coli ATCC 25922
[4] = tested on: Escherichia coli ATCC 25726
[5] = tested on: Staphylococcus aureus ATCC 25923
[6] = tested on: Staphylococcus epidermidis
[7] = tested on: Staphylococcus aureus ATCC 29213
Streptococcus uberis = tested on: Streptococcus uberis
Micrococcus luteus = tested on: Micrococcus luteus
Listeria innocua = tested on: Listeria innocua
Bacillus cereus = tested on: Bacillus cereus
Leuconostoc lactis = tested on: Leuconostoc lactis

MIC [1] [µM] | MIC [2] [µM] | MIC [3] [µM] | MIC [5] [µM] | SMILES | further results
3 (≈ 6.37 µg/mL) | 3 (≈ 6.37 µg/mL) | 13 (≈ 27.6 µg/mL) |  | CC[C@H](C)[C@@H]1NC(=O)[C@H](C)NC(=O)[C@@H](NC(=O)[C@@H](NC(=O)[C@@H](NC(=O)[C@H](CCCCN)NC(=O)[C@H](C)NC(=O)[C@H](C)NC(=O)[C@H](CCSC)NC(=O)CNC(=O)[C@H](C)NC(=O)[C@@H](NC(=O)[C@@H](NC(=O)[C@@H]2CCCN2C(=O)[C@H](Cc2ccccc2)NC(=O)[C@@H](N)Cc2ccccc2)[C@@H](C)CC)[C@@H](C)CC)C(C)C)[C@@H](C)CC)CSSC[C@@H](C(=O)O)NC(=O)[C@H](CCCCN)NC(=O)[C@H](CCCCN)NC(=O)[C@H]([C@@H](C)O)NC1=O [FFPIIAGMAAKVICAITKKC] | 
15 (≈ 21 µg/mL) |  | 125 (≈ 175 µg/mL) |  | CC[C@H](C)[C@H](NC(=O)[C@H](CC(C)C)NC(=O)[C@H](CCCN=C(N)N)NC(=O)CNC(=O)[C@@H](NC(=O)[C@@H](NC(=O)[C@@H]1CCCN1C(=O)[C@H](CC(C)C)NC(=O)[C@@H](N)Cc1ccccc1)[C@@H](C)CC)C(C)C)C(=O)N[C@@H](CO)C(=O)NCC(=O)N[C@@H](CC(C)C)C(=O)N[C@@H](CC(C)C)C(N)=O [FLPIVGRLISGLL] | 
4 (≈ 10.3 µg/mL) | 8 (≈ 20.6 µg/mL) | 7 (≈ 18 µg/mL) |  | CC[C@H](C)[C@@H]1NC(=O)[C@H](C)NC(=O)[C@@H](NC(=O)[C@H](Cc2ccccc2)NC(=O)[C@@H](NC(=O)[C@H](CCCCN)NC(=O)[C@@H]2CCCN2C(=O)[C@H](CC(C)C)NC(=O)[C@H](Cc2ccccc2)NC(=O)[C@H](CCCCN)NC(=O)[C@H](C)NC(=O)[C@H](C)NC(=O)[C@@H](NC(=O)CNC(=O)[C@H](C)NC(=O)[C@@H](NC(=O)[C@@H](NC(=O)[C@@H]2CCCN2C(=O)[C@H](CC(C)C)NC(=O)[C@@H](N)Cc2ccccc2)C(C)C)[C@@H](C)CC)C(C)C)[C@@H](C)CC)CSSC[C@@H](C(=O)O)NC(=O)[C@H](CCCCN)NC(=O)[C@H](CCCCN)NC(=O)[C@H]([C@@H](C)O)NC1=O [FLPVIAGVAAKFLPKIFCAITKKC] | 
25 (≈ 45.5 µg/mL) | ≥ 50 | > 50 |  | CC[C@H](C)[C@H](NC(=O)CNC(=O)[C@H](CC(N)=O)NC(=O)[C@H](CC(C)C)NC(=O)[C@H](CC(C)C)NC(=O)[C@H](CCCCN)NC(=O)CNC(=O)[C@@H](NC(=O)[C@@H](NC(=O)[C@@H]1CCCN1C(=O)[C@H](CC(C)C)NC(=O)[C@@H](NC(=O)[C@@H](NC(=O)[C@@H]1CCCN1C(=O)[C@H](CC(C)C)NC(=O)[C@@H](N)Cc1ccccc1)C(C)C)[C@@H](C)CC)C(C)C)[C@@H](C)CC)C(=O)N[C@@H](CC(C)C)C(N)=O [FLPVILPVIGKLLNGIL] | 
 |  |  | 20 (≈ 62.5 µg/mL) | CC[C@H](C)[C@H](NC(=O)[C@H](C)NC(=O)CN)C(=O)N[C@@H](CCCCN)C(=O)N[C@@H](CC(=O)O)C(=O)N[C@@H](C)C(=O)N[C@@H](CC(C)C)C(=O)N[C@@H](CCCCN)C(=O)NCC(=O)N[C@@H](C)C(=O)N[C@@H](C)C(=O)N[C@@H](CCCCN)C(=O)N[C@H](C(=O)N[C@H](C(=O)N[C@@H](C)C(=O)N[C@H](C(=O)N[C@@H](CCC(=O)O)C(=O)N[C@@H](CC(C)C)C(=O)N[C@@H](CC(C)C)C(=O)N[C@@H](CCCCN)C(=O)N[C@@H](CCCCN)C(=O)N[C@@H](C)C(=O)N[C@@H](CCC(N)=O)C(=O)N[C@H]1CSSC[C@@H](C(=O)O)NC(=O)[C@H]([C@@H](C)O)NC(=O)[C@H](CCCCN)NC(=O)[C@H](CCC(=O)O)NC(=O)[C@H](CC(C)C)NC(=O)[C@H](CCCCN)NC1=O)C(C)C)C(C)C)[C@@H](C)O [GAIKDALKGAAKTVAVELLKKAQCKLEKTC] | MIC [4]: 20 µM (≈ 62.5 µg/mL)
 |  |  | 12.5 (≈ 21.1 µg/mL) | CC(C)C[C@H](NC(=O)[C@H](CC(C)C)NC(=O)[C@H](CC(N)=O)NC(=O)[C@H](C)NC(=O)CNC(=O)[C@H](Cc1ccccc1)NC(=O)[C@H](CCCCN)NC(=O)[C@H](CC(C)C)NC(=O)[C@H](C)NC(=O)[C@H](CCCCN)NC(=O)CNC(=O)[C@H](CC(C)C)NC(=O)[C@@H](NC(=O)[C@H](CO)NC(=O)CNC(=O)[C@H](Cc1ccccc1)NC(=O)CN)C(C)C)C(N)=O [GFGSVLGKALKFGANLL] | MIC [4]: ≥ 50 µM
 |  |  | 19.2 (≈ 50 µg/mL) | CC[C@H](C)[C@H](NC(=O)CNC(=O)[C@H](Cc1ccccc1)NC(=O)[C@H](CC(C)C)NC(=O)CN)C(=O)N[C@@H](CC(C)C)C(=O)NCC(=O)N[C@@H](CO)C(=O)N[C@H](C(=O)N[C@@H](C)C(=O)N[C@@H](CCCCN)C(=O)N[C@@H](Cc1cnc[nH]1)C(=O)N[C@H](C(=O)N[C@@H](CC(C)C)C(=O)N1CCC[C@H]1C(=O)N[C@@H](Cc1cnc[nH]1)C(=O)N[C@H](C(=O)N[C@H](C(=O)N1CCC[C@H]1C(=O)N[C@H](C(=O)N[C@H](C(=O)N[C@@H](C)C(=O)N[C@@H](CCC(=O)O)C(=O)N[C@@H](Cc1cnc[nH]1)C(=O)N[C@@H](CC(C)C)C(N)=O)C(C)C)C(C)C)[C@@H](C)CC)C(C)C)C(C)C)C(C)C [GLFGILGSVAKHVLPHVIPVVAEHL] | MIC [6]: 9.6 µM (≈ 25 µg/mL); MIC [7]: 9.6 µM (≈ 25 µg/mL); MIC (Streptococcus uberis): 19.2 µM (≈ 50 µg/mL); MIC (Micrococcus luteus): 7.68 µM (≈ 20 µg/mL); MIC (Listeria innocua): 9.6 µM (≈ 25 µg/mL); MIC (Bacillus cereus): ≥ 38.4 µM; MIC (Leuconostoc lactis): 9.6 µM (≈ 25 µg/mL)
12 (≈ 59.2 µg/mL) |  | 1 (≈ 4.93 µg/mL) |  | CC[C@H](C)[C@H](NC(=O)CNC(=O)[C@@H](NC(=O)[C@H](CCCN=C(N)N)NC(=O)[C@@H](NC(=O)[C@H](CC(C)C)NC(=O)[C@H](CC(=O)O)NC(=O)[C@H](CCSC)NC(=O)CNC(=O)[C@H](C)NC(=O)[C@H](CCC(=O)O)NC(=O)[C@H](CCCCN)NC(=O)CNC(=O)[C@@H](NC(=O)[C@@H](NC(=O)[C@H](CCCCN)NC(=O)[C@@H](NC(=O)[C@@H](NC(=O)[C@H](CC(N)=O)NC(=O)[C@H](Cc1ccccc1)NC(=O)[C@@H](NC(=O)CNC(=O)[C@@H](NC(=O)[C@H](CCCCN)NC(=O)[C@H](C)NC(=O)[C@H](CCCCN)NC(=O)[C@H](CCCCN)NC(=O)[C@H](CCCCN)NC(=O)[C@H](CC(N)=O)NC(=O)[C@@H](NC(=O)[C@H](CCCCN)NC(=O)[C@@H]1CCCN1C(=O)[C@H](Cc1ccccc1)NC(=O)[C@H](CC(C)C)NC(=O)CN)[C@@H](C)CC)[C@@H](C)O)C(C)C)[C@@H](C)CC)[C@@H](C)CC)[C@@H](C)O)C(C)C)[C@@H](C)CC)[C@@H](C)O)C(=O)N[C@@H](CC(=O)O)C(=O)N[C@H](C(=O)N[C@H](C(=O)NCC(=O)N[C@H]1CSSC[C@@H](C(=O)O)NC(=O)[C@H](CCC(=O)O)NC(=O)CNC(=O)[C@H](CCCCN)NC(=O)[C@H]([C@@H](C)CC)NC(=O)[C@H](CCCCN)NC1=O)[C@@H](C)CC)[C@@H](C)O [GLFPKINKKKAKTGVFNIIKTVGKEAGMDLIRTGIDTIGCKIKGEC] | 
≥ 50 | ≥ 50 | 50 (≈ 155 µg/mL) |  | CC[C@H](C)[C@H](NC(=O)[C@H](C)NC(=O)[C@H](CC(=O)O)NC(=O)[C@H](CC(C)C)NC(=O)[C@H](CC(C)C)NC(=O)CN)C(=O)N[C@@H](CCCCN)C(=O)N[C@@H](CC(=O)O)C(=O)N[C@H](C(=O)N[C@@H](C)C(=O)N[C@@H](CCC(N)=O)C(=O)N[C@@H](CC(N)=O)C(=O)N[C@@H](CC(C)C)C(=O)N[C@@H](Cc1ccccc1)C(=O)N[C@@H](C)C(=O)N[C@@H](CC(N)=O)C(=O)N[C@H](C(=O)N[C@@H](CC(C)C)C(=O)N[C@@H](CC(=O)O)C(=O)N[C@@H](CCCCN)C(=O)N[C@H](C(=O)N[C@@H](CCCCN)C(=O)N[C@H]1CSSC[C@@H](C(=O)O)NC(=O)[C@H](CCCCN)NC(=O)[C@H]([C@@H](C)O)NC(=O)[C@H](Cc2ccccc2)NC(=O)[C@H](CCCCN)NC1=O)[C@@H](C)CC)C(C)C)[C@@H](C)O [GLLDAIKDTAQNLFANVLDKIKCKFTKC] | 
 |  |  | > 100 | CC[C@H](C)[C@H](NC(=O)[C@H](CCC(=O)O)NC(=O)[C@H](CO)NC(=O)[C@H](C)NC(=O)[C@H](CC(C)C)NC(=O)[C@H](C)NC(=O)[C@H](CCC(N)=O)NC(=O)CNC(=O)[C@H](Cc1ccccc1)NC(=O)[C@H](CCCCN)NC(=O)[C@H](CCCCN)NC(=O)[C@H](C)NC(=O)[C@H](CO)NC(=O)[C@H](Cc1cnc[nH]1)NC(=O)[C@H](CC(C)C)NC(=O)[C@H](Cc1ccccc1)NC(=O)[C@H](CCCCN)NC(=O)CNC(=O)[C@@H](NC(=O)CN)C(C)C)C(=O)N[C@@H](CCSC)C(=O)N[C@@H](CCCCN)C(=O)N[C@@H](CO)C(=O)O [GVGKFLHSAKKFGQALASEIMKS] | MIC [4]: ≥ 100 µM
 |  |  |  | CC[C@H](C)[C@H](N)C(=O)N[C@H](C(=O)N[C@@H](CCC(=O)O)C(=O)N[C@@H](CCCCN)C(=O)N[C@@H](CC(C)C)C(=O)N[C@H](C(=O)N[C@@H](CC(N)=O)C(=O)N[C@H](C(=O)N[C@@H](C)C(=O)N[C@@H](CC(C)C)C(=O)NCC(=O)N[C@@H](CC(C)C)C(=O)N[C@@H](CC(C)C)C(=O)N[C@@H](CO)C(=O)NCC(=O)N[C@@H](CC(C)C)C(N)=O)[C@@H](C)O)C(C)C)[C@@H](C)CC [IIEKLVNTALGLLSGL] | MIC (Leuconostoc lactis): 25 µM (≈ 41.3 µg/mL)
